# According to patent US6077869A, “Aryl phenylhydrazides as selective COX-2 inhibitors for treatment of inflammation” (Ortho-McNeil Pharmaceutical, Inc., priority 1999, dated 2000):
# pIC50: −log10 of the molar value.
# Target: cyclooxygenase 2 (COX-2)
# Test: Procedure I: ability of the compounds to inhibit cyclooxygenase 2 (6217/6218)
# Assay type: biochemical, Sheep
# Conditions: Wh Cell
row,Structure (SMILES),pIC50
1,COc1ccc(C(=O)NNc2ccccc2)cc1 [Example 11],< 5.00
2,CS(=O)(=O)c1ccc(NNC(=O)c2ccc(Cl)cc2)cc1 [Example 8],< 5.00
3,O=C(NNc1ccc(Cl)cc1)c1ccc(Cl)cc1 [Example 1],6.47
4,Cc1ccc(NNC(=O)c2ccc(Cl)cc2)cc1 [Example 7],8.00
5,COc1ccc(NNC(=O)c2ccc(Cl)cc2)cc1 [Example 10],6.89
6,O=C(NNc1ccccc1)c1ccccc1 [Example 2],5.00
7,O=C(NNc1ccccc1)c1ccc(Cl)cc1 [Example 3],6.48
8,COc1ccc(C(=O)NNc2ccc(Cl)cc2)cc1 [Example 9],6.33

# Further lines, results first:
row,pIC50,Structure (SMILES)
1,6.28,O=C(NNc1ccc(Cl)cc1)c1ccccc1 [Example 5]
2,6.74,COc1ccc(NNC(=O)c2ccccc2)cc1 [Example 12]
3,< 5.00,CS(=O)(=O)c1ccc(NNC(=O)c2ccccc2)cc1 [Example 6]
4,6.48,Cc1ccc(NNC(=O)c2ccccc2)cc1 [Example 4]

# Target: cyclooxygenase 1 (COX-1)
# Test: Procedure II: cyclooxygenase 1 activity (6226)
# Assay type: biochemical, Rat
# Conditions: RBL-1 cell homogenate supernatant
# Procedure: [Worded in the source for another target; this target is reported under the same test.] Rat basophilic leukemia cells (RBL-1; 5×10^7 viable cells/mL) were disrupted by homogenization on ice (four 20 sec bursts) with a Brinkman polytron. […] The pellet was discarded and the supernatant was saved as the source of enzymes. The supernatant was pre-incubated for five minutes at 37° C. in the presence of 2 mM of CaCl2 and compound or vehicle (1% DMSO). The conversion of AA into products by CO and LO was initiated by adding 10 μL (50 μCi) of 1-^14 C-AA to each tube and incubated at 37° C. for 20 minutes. The reaction was stopped by adjusting the pH of each sample to 3 to 3.5 with 2 M formic acid. Samples were extracted with three volumes of chloroform to isolate the products of 5-LO formed during the reaction. Fractions were dried under nitrogen, then resuspended in 40 μL of chloroform and spotted onto silica gel HL plates.
# The plates were developed in A-9 solvent. The dried plates were analyzed using a Bioscan Imaging TLC scanner to determine the percentage of radiolabelled AA converted to 5-HETE (LO product) in each sample. The percentage of inhibition was calculated by:
# [1-(5-HETE test)]/5-HETE control×100=% inhibition The IC50 was determined using a curve fit in Cricket Graph (Computer Associated), which provided the equation of the regressed line used in the calculation.
row,Structure (SMILES),pIC50
1,COc1ccc(C(=O)NNc2ccccc2)cc1 [Example 11],< 5.00
2,CS(=O)(=O)c1ccc(NNC(=O)c2ccc(Cl)cc2)cc1 [Example 8],< 5.00
3,O=C(NNc1ccc(Cl)cc1)c1ccc(Cl)cc1 [Example 1],< 5.00
4,Cc1ccc(NNC(=O)c2ccc(Cl)cc2)cc1 [Example 7],< 5.00
5,O=C(NNc1ccccc1)c1ccccc1 [Example 2],< 5.00
6,O=C(NNc1ccccc1)c1ccc(Cl)cc1 [Example 3],< 5.00
7,COc1ccc(C(=O)NNc2ccc(Cl)cc2)cc1 [Example 9],< 5.00

# Next, values leading:
row,pIC50,Structure (SMILES)
1,< 5.00,O=C(NNc1ccc(Cl)cc1)c1ccccc1 [Example 5]
2,< 5.00,COc1ccc(NNC(=O)c2ccccc2)cc1 [Example 12]
3,< 5.00,CS(=O)(=O)c1ccc(NNC(=O)c2ccccc2)cc1 [Example 6]
4,< 5.00,Cc1ccc(NNC(=O)c2ccccc2)cc1 [Example 4]
